Results published in US20180214388A1, “COMPOSITION AND METHOD FOR REDUCING SCARRING” (priority 2015, published 2018).

Key:
[1] = tested on: cytochrome P450 oxidase enzyme system; conditions: metabolized in the liver; cited from earlier work
[2] = tested on: subjects with existing scars, incision after surgical removal; assay: Caffeine cream for scar reduction or prevention after surgical excision (Example 3); type: in vivo, human; conditions: topical cream; both subjects felt caffeine effects
Excerpt: Two subjects with existing scars were chosen for the study.
Subject #1 presented with a skin growth on the left mid cheek.
Subject #2 presented with an older mid-forehead scar. […] The subject underwent a third revision of the scar.

[3] = cited from earlier work
wound = assay: Wound healing with application of resveratrol; type: in vivo

## Cn1c(=O)[nH]c2ncn(C)c2c1=O [Paraxanthine, 1,7-dimethyl-3H-purine-2,6-dione]
[1]
  share of caffeine metabolites: 84%

## Cn1c(=O)c2c(ncn2C)n(C)c1=O [caffeine, 1,3,7-trimethylpurine-2,6-dione]
[2]
  uptake from application site and distribution: rapidly taken from the application site and distributed throughout the body

## Oc1ccc(/C=C/c2cc(O)cc(O)c2)cc1 [resveratrol, trans-3,4′,5-trihydroxystilbene]
[3]
  solubility in water: very low solubility
wound
  resulting scar: attenuated scar
  time to epithelialization: ≤ 24 h

## Cn1c(=O)c2[nH]cnc2n(C)c1=O [theophylline, 1,3-dimethyl-7H-purine-2,6-dione, reference compound]
[1]
  share of caffeine metabolites: 4%
